According to patent publication US9682955B2, “Quinazoline derivatives useful as CB-1 inverse agonists” (Janssen Pharmaceutica NV, priority 2014, dated 2017):

Key:
[1] = Mouse Fast PK/BBB (plasma and brain concentration); format: in vivo, Male C57bl/6j mice; settings: PO 30 mg/kg
Method: Male Sprague Dawley rats were ordered from Charles River (225-250 gm upon arrival). They were fed standard chow diet (Purina 5001) and housed 2 per cage. Male C57bl/6j mice were ordered from Charles River at 22-25 g and housed 3 per cage. They were fed standard chow (Purina 5001). All animals were housed in a temperature-controlled room with 12-hour light/dark cycle. Animals were given food and water ad libitum, except as noted.
[…] Test compounds were administered by oral gavage (5 ml kg^−1).
Male C57bl/6j mice were dosed with test compounds at 30 mg/kg. Plasma was collected via retro-orbital bleeding at 1 hr and 4 hrs after dosing. Whole brain without cerebellum was collected at 4 hrs after dosing. Wet brain weight was recorded before freezing. Brains were homogenized in saline and sent for analysis for determination of concentration of test compound.
Tables 6A and 6B below present results for representative compounds of the present invention, tested according to the procedure as described above. Each compound was tested in three animals (N=3) and administered PO at 20 mg/kg or 30 mg/kg.

[2] = target: Human CB1R (Cannabanoid receptor 1) (Homo sapiens (Human), UniProt P21554); assay: CB-1 in vitro cAMP assay (HTRF); format: cell-based; settings: mean where tested more than once
Chain of Human CB1R (Cannabanoid receptor 1) (P21554 whole entry): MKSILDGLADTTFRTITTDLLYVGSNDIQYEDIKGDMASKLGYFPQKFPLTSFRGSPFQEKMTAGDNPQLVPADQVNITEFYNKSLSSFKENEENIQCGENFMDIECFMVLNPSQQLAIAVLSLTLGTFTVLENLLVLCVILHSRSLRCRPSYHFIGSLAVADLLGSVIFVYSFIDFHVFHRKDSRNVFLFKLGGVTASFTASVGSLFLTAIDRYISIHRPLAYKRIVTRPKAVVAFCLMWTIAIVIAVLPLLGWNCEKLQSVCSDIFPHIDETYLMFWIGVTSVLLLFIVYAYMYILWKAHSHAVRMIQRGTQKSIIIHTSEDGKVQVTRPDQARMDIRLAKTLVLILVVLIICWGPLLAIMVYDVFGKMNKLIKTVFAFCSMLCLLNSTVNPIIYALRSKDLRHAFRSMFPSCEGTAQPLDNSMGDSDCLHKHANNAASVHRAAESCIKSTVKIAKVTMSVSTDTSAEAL
Method in brief: (§1)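 HEK-293 cells stably transfected with the human receptor, plated overnight at 4E5 cells/mL. Compounds given as 1/3 serial dilutions from 10 mM DMSO stocks. Stimulation in HBSS/5 mM HEPES/0.1% BSA with 0.5 mM IBMX and forskolin (1.5 μM in buffer); cAMP measured by competitive HTRF immunoassay (d2-cAMP, cryptate anti-cAMP) against a cAMP standard curve.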

[3] = target: Human CB2R (Cannabanoid receptor 2) (Homo sapiens (Human), UniProt P34972); assay: CB-2 in vitro cAMP assay (HTRF); format: cell-based; settings: mean where tested more than once
Chain of Human CB2R (Cannabanoid receptor 2) (P34972 whole entry): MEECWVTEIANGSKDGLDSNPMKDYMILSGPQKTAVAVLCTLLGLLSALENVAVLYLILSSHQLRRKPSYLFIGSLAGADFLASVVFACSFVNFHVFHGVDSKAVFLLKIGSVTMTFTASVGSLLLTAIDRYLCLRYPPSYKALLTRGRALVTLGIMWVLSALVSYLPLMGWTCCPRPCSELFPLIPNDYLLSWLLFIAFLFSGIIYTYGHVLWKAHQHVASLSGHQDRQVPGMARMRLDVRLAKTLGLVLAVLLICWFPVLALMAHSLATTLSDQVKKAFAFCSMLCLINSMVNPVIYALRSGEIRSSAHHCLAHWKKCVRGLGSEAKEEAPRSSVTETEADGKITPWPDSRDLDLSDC
Method in brief: as §1

| BRAIN Mean Conc. ± Std. Dev ([1]; 1 hr, N=3) | BRAIN Mean Conc. ± Std. Dev ([1]; 4 hr, N=3) | PLASMA Mean Conc. ± Std. Dev ([1]; 4 hr, N=3) | concentration at 1 h ([1]; male, C57bl/6j, plasma, 1 hr, N=3, read-out: PLASMA Mean Conc. ± Std. Dev) | EC50 [2] | EC50 [3] | SMILES |
| --- | --- | --- | --- | --- | --- | --- |
| BLOQ ± NA | BLOQ ± NA | BLOQ ± NA | 7.83 ± 1.08 ng/mL | 10 nM | 3920 nM | N=C(N)c1ccc(S(=O)(=O)N2CCC(Nc3ncnc4ccc(C(c5ccc(Cl)cc5)c5ccc(Cl)cc5)cc34)CC2)cc1 [Compound #47, 4-((4-((6-(bis(4-chlorophenyl)methyl)quinazolin-4-yl)amino)piperidin-1-yl)sulfonyl)benzimidamide] |
| – | – | – | – | 446 nM | 9100 nM | NC(=O)c1ccc(CNc2ncnc3ccc(C(c4ccc(Cl)cc4)c4ccc(Cl)cc4)cc23)cc1 [compound 56, 4-((6-(bis(4-chlorophenyl)methyl)quinazolin-4-ylamino)methyl)benzamide] |
| – | – | – | – | 5300 nM | > 10000 nM | O=C(O)c1ccc(CNc2ncnc3ccc(C(c4ccc(Cl)cc4)c4ccc(Cl)cc4)cc23)cc1 [compound 60, 4-((6-(bis(4-chlorophenyl)methyl)quinazolin-4-ylamino)methyl)benzoic acid] |
| – | – | – | – | 20 nM | > 10000 nM | COC(=O)c1ccc(CNc2ncnc3ccc(C(c4ccc(Cl)cc4)c4ccc(Cl)cc4)cc23)cc1 [compound 61, methyl 4-((6-(bis(4-chlorophenyl)methyl)quinazolin-4-ylamino)methyl)benzoate] |
| – | – | – | – | 10 nM | 1200 nM | Fc1cccc(CNc2ncnc3ccc(C(c4ccc(Cl)cc4)c4ccc(Cl)cc4)cc23)c1 [compound 63, 6-(bis(4-chlorophenyl)methyl)-N-(3-fluorobenzyl)quinazolin-4-amine] |
| – | – | – | – | 5750 nM | > 10000 nM | O=C(CC(=O)N1CCC(Nc2ncnc3ccc(C(c4ccc(Cl)cc4)c4ccc(Cl)cc4)cc23)CC1)NCCO [compound 82, 3-(4-(6-(bis(4-chlorophenyl)methyl)quinazolin-4-ylamino)piperidin-1-yl)-N-(2-hydroxyethyl)-3-oxopropanamide] |
| – | – | – | – | 85 nM | 3500 nM | O=C(NCCO)c1cccc(N2CCC(Nc3ncnc4ccc(C(c5ccc(Cl)cc5)c5ccc(Cl)cc5)cc34)CC2)c1 [compound 83, 3-(4-(6-(bis(4-chlorophenyl)methyl)quinazolin-4-ylamino)piperidin-1-yl)-N-(2-hydroxyethyl)benzamide] |
| – | – | – | – | 2920 nM | > 10000 nM | NC(=O)CC(=O)N1CCC(Nc2ncnc3ccc(C(c4ccc(Cl)cc4)c4ccc(Cl)cc4)cc23)CC1 [compound 87, 3-(4-(6-(bis(4-chlorophenyl)methyl)quinazolin-4-ylamino)piperidin-1-yl)-3-oxopropanamide] |
| – | – | – | – | 799 nM | > 10000 nM | O=C(O)CC(=O)N1CCC(Nc2ncnc3ccc(C(c4ccc(Cl)cc4)c4ccc(Cl)cc4)cc23)CC1 [compound 88, 3-(4-(6-(bis(4-chlorophenyl)methyl)quinazolin-4-ylamino)piperidin-1-yl)-3-oxopropanoic acid] |
| – | – | – | – | 25 nM | 1800 nM | CCOC(=O)CC(=O)N1CCC(Nc2ncnc3ccc(C(c4ccc(Cl)cc4)c4ccc(Cl)cc4)cc23)CC1 [compound 89, ethyl 3-(4-(6-(bis(4-chlorophenyl)methyl)quinazolin-4-ylamino)piperidin-1-yl)-3-oxopropanoate] |
| – | – | – | – | 818 nM | 3160 nM | O=C(O)c1cccc(N2CCC(Nc3ncnc4ccc(C(c5ccc(Cl)cc5)c5ccc(Cl)cc5)cc34)CC2)c1 [compound 95, 3-(4-(6-(bis(4-chlorophenyl)methyl)quinazolin-4-ylamino)piperidin-1-yl)benzoic acid] |
| – | – | – | – | 23 nM | 218 nM | NC(=O)c1cccc(N2CCC(Nc3ncnc4ccc(C(c5ccc(Cl)cc5)c5ccc(Cl)cc5)cc34)CC2)c1 [compound 96, 3-(4-(6-(bis(4-chlorophenyl)methyl)quinazolin-4-ylamino)piperidin-1-yl)benzamide] |
| – | – | – | – | 83 nM | > 10000 nM | COC(=O)c1cccc(N2CCC(Nc3ncnc4ccc(C(c5ccc(Cl)cc5)c5ccc(Cl)cc5)cc34)CC2)c1 [compound 97, methyl 3-(4-(6-(bis(4-chlorophenyl)methyl)quinazolin-4-ylamino)piperidin-1-yl)benzoate] |
| – | – | – | – | 106 nM | 3880 nM | O=C(O)c1cccc(S(=O)(=O)N2CCC(Nc3ncnc4ccc(C(c5ccc(Cl)cc5)c5ccc(Cl)cc5)cc34)CC2)c1 [compound 101, 3-(4-(6-(bis(4-chlorophenyl)methyl)quinazolin-4-ylamino)piperidin-1-ylsulfonyl)benzoic acid] |
| – | – | – | – | 4 nM | > 10000 nM | O=S(=O)(c1ccccc1)N1CCC(Nc2ncnc3ccc(C(c4ccc(Cl)cc4)c4ccc(Cl)cc4)cc23)CC1 [compound 109, 6-(bis(4-chlorophenyl)methyl)-N-(1-(phenylsulfonyl)piperidin-4-yl)quinazolin-4-amine] |
| – | – | – | – | 15 nM | 2740 nM | O=S(=O)(c1ccccn1)N1CCC(Nc2ncnc3ccc(C(c4ccc(Cl)cc4)c4ccc(Cl)cc4)cc23)CC1 [compound 111, 6-(bis(4-chlorophenyl)methyl)-N-(1-(pyridin-2-ylsulfonyl)piperidin-4-yl)quinazolin-4-amine] |
| – | – | – | – | 8 nM | 2500 nM | CC(Nc1ncnc2ccc(C(c3ccc(Cl)cc3)c3ccc(Cl)cc3)cc12)c1ccc(C(F)(F)F)cc1 (stereo not shown) [compound 116, 6-(bis(4-chlorophenyl)methyl)-N-(1-(4-(trifluoromethyl)phenyl)ethyl)quinazolin-4-amine] |
| – | – | – | – | 5 nM | 910 nM | O=C(c1ccccc1)N1CCC(Nc2ncnc3ccc(C(c4ccc(Cl)cc4)c4ccc(Cl)cc4)cc23)CC1 [compound 119, (4-(6-(bis(4-chlorophenyl)methyl)quinazolin-4-ylamino)piperidin-1-yl)(phenyl)methanone] |
| – | – | – | – | 3 nM | 2140 nM | O=S(=O)(c1ccc(F)cc1)N1CCC(Nc2ncnc3ccc(C(c4ccc(Cl)cc4)c4ccc(Cl)cc4)cc23)CC1 [compound 121, 6-(bis(4-chlorophenyl)methyl)-N-(1-(4-fluorophenylsulfonyl)piperidin-4-yl)quinazolin-4-amine] |
| – | – | – | – | 2 nM | 1930 nM | O=S(=O)(c1ccccc1F)N1CCC(Nc2ncnc3ccc(C(c4ccc(Cl)cc4)c4ccc(Cl)cc4)cc23)CC1 [compound 124, 6-(bis(4-chlorophenyl)methyl)-N-(1-(2-fluorophenylsulfonyl)piperidin-4-yl)quinazolin-4-amine] |
| – | – | – | – | 44 nM | 5940 nM | FC(F)(F)c1ccc(C2(Nc3ncnc4ccc(C(c5ccc(Cl)cc5)c5ccc(Cl)cc5)cc34)CC2)cc1 [compound 125, 6-(bis(4-chlorophenyl)methyl)-N-(1-(4-(trifluoromethyl)phenyl)cyclopropyl) quinazolin-4-amine] |
| – | – | – | – | 25 nM | 1180 nM | FC(F)(F)c1cncc(CNc2ncnc3ccc(C(c4ccc(Cl)cc4)c4ccc(Cl)cc4)cc23)c1 [compound 126, 6-(bis(4-chlorophenyl)methyl)-N-((5-(trifluoromethyl)pyridin-3-yl)methyl)quinazolin-4-amine] |
| – | – | – | – | 30 nM | 1720 nM | FC(F)(F)c1ccc(CNc2ncnc3ccc(C(c4ccc(Cl)cc4)c4ccc(Cl)cc4)cc23)nc1 [compound 127, 6-(bis(4-chlorophenyl)methyl)-N-((5-(trifluoromethyl)pyridin-2-yl)methyl)quinazolin-4-amine] |
| – | – | – | – | 9 nM | 10400 nM | CC(Nc1ncnc2ccc(C(c3ccc(Cl)cc3)c3ccc(Cl)cc3)cc12)c1cccc(C(F)(F)F)c1 (stereo not shown) [compound 128, 6-(bis(4-chlorophenyl)methyl)-N-(1-(3-(trifluoromethyl)phenyl)ethyl)quinazolin-4-amine] |
| – | – | – | – | 3 nM | 72 nM | FC(F)(F)c1ccc(N2CCC(Nc3ncnc4ccc(C(c5ccc(Cl)cc5)c5ccc(Cl)cc5)cc34)CC2)cc1 [compound 129, 6-(bis(4-chlorophenyl)methyl)-N-(1-(4-(trifluoromethyl)phenyl)piperidin-4-yl)quinazolin-4-amine] |
| – | – | – | – | 8 nM | 2850 nM | O=S(=O)(N1CCC(CNc2ncnc3ccc(C(c4ccc(Cl)cc4)c4ccc(Cl)cc4)cc23)CC1)C(F)(F)F [compound 135, 6-(bis(4-chlorophenyl)methyl)-N-((1-(trifluoromethylsulfonyl)piperidin-4-yl)methyl)quinazolin-4-amine] |
| – | – | – | – | 32 nM | 5010 nM | CCS(=O)(=O)N1CCC(Nc2ncnc3ccc(C(c4ccc(Cl)cc4)c4ccc(Cl)cc4)cc23)CC1 [compound 141, 6-(bis(4-chlorophenyl)methyl)-N-(1-(ethylsulfonyl)piperidin-4-yl) quinazolin-4-amine] |
